Experimental data reported in patent US7317038B2, “Nerve regeneration promoters containing semaphorin inhibitor as the active ingredient” (Dainippon Sumitomo Pharma Co., Ltd., priority 2000, dated 2008).
“Also recorded” adds a separate entry of the source.

Target: T1, binding of Sema3A and Neuropilin-1 (Mus musculus, UniProt O08665)
T1 construct: alkaline phosphatase was fused from the 758th amino acid to the C terminal side in said Sema3A; expressed in transfected cells; host or cells: COS7
T1 sequence (O08665 21-758 limits assumed): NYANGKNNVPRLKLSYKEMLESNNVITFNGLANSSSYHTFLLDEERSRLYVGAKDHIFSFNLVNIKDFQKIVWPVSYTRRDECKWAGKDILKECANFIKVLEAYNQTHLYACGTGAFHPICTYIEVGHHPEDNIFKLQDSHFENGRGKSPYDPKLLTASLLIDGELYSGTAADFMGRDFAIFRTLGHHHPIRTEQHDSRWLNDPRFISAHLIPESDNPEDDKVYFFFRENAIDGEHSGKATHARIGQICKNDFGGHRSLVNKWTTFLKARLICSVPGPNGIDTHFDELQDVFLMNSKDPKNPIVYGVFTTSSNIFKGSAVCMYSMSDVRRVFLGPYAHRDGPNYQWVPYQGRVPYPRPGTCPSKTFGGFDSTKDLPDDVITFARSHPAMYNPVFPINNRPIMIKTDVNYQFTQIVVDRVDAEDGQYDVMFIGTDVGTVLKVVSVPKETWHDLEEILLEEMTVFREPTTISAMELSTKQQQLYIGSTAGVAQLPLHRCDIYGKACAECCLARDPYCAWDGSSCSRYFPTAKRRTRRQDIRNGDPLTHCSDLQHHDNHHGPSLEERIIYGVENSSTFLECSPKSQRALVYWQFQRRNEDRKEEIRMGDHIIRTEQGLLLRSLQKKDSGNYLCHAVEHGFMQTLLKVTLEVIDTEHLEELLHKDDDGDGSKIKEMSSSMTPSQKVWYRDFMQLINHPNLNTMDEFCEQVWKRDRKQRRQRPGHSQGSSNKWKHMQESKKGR
Assay: Sema3A-receptor-binding experiment (Sema3A-AP to Neuropilin-1 expressing COS7 cells)
Conditions: SPF-3059-1 0 to 10 μg/ml
Description: Whether SPF-3059-1 inhibits the binding of Sema3A and Neuropilin-1, which is a component constituting Sema3A receptor complex, was examined in the receptor-binding experiment. Neuropilin-1 and plexin Al are currently known as constituting components of Sema3A receptors. However, mainly Neuropilin-1 is known to contribute to Sema3A binding. Sema3A fused with alkaline phosphatase (human-derived: heat-resistance) (Sema3A-AP) was used as a ligand in the receptor-binding experiment and the amount bound to the receptor was detected with the alkaline phosphatase activity as an index. Mouse-derived Sema3A was used. A recombinant gene was generated in which alkaline phosphatase was fused from the 758th amino acid to the C terminal side in said Sema3A. This recombinant gene was then introduced into a COS7 cell where it was expressed and secreted and Sema3A-AP was prepared.
The receptor-binding experiment was performed as described below. The Neuropilin-1 expressing plasmid (pUCSRα-Neuropilin-1) was introduced into COS7 cells and cultivated for 24 hours. These cells express Neuropilin-1 on the cell surface. […] The alkaline phosphatase activity derived from Sema3A-AP in the cell extract (=binding amount of Sema3A-AP) was determined. […] The solution was then measured for its absorbance at 405 nm (p-nitrophenol: generated from p-nitirophenyl phosphate with alkaline phosphatase).

## CC(=O)c1c(C)c(C(=O)C2COc3cc(O)c(O)c(C(=O)O)c3C2=O)cc2c(=O)c3c(C(=O)O)c(O)c(O)cc3oc12 (stereo not shown) [SPF-3059-1]
  binding of Sema3A-AP to Neuropilin-1 expressing COS7 cells: decrease in a concentration-dependent manner; also recorded: inhibits the binding of Sema3A-AP to Neuropilin-1 in a concentration-dependent manner
